# Test results: PMC8022858, “Discovery of bone morphogenetic protein 7-derived peptide sequences that attenuate the human osteoarthritic chondrocyte phenotype” (Molecular Therapy. Methods & Clinical Development, 2021)
# System: human OA synovium explants
# Experiment: PGE2 levels in culture supernatant of synovium explants
# Type: cell-based
# Settings: n = 5 donors, 24 h, relative to control (Figure 6C)
# Procedure: Figure 6 Peptide p[63−82] activity on OA knee joint tissues Human OA knee joint tissues were cultured for 24 h in the presence of BMP7, peptide p[63−82], or the scrambled version of peptide p[63−82] and compared to control conditions. (A) Cartilage tissues (n = 7 individual donors) were exposed to shown conditions and analyzed for COL2A1, COL10A1, and COX-2 mRNA expression by quantitative real-time PCR (normalized for 28S rRNA expression and relative to control conditions). (B) GAG release in medium from cartilage tissues (n = 5 individual donors) was determined, and data were calculated relative to the control condition. (C) PGE2 levels in culture supernatant from synovium (n = 5 donors). (D) PGE2 levels in culture supernatant from cartilage tissues from (B) (n = 5 donors). (E) PGE2 levels in culture supernatant from IPFP (n = 5 donors). (F) PGE2 levels in culture supernatant from the meniscus. Synovium, IPFP, and meniscus tissues were from the same 5 donors as the cartilage tissues in (B) and (C). PGE2 levels in conditions were calculated relative to controls for each donor. In graphs, error bars represent mean ± SEM; data are presented relative to the control condition for each time point. Statistical differences (unpaired two-tailed Student’s t test) were calculated to control condition: ∗p < 0.05, ∗∗p < 0.01, and ∗∗∗p < 0.001. […]
row,Substance,PGE2 levels in culture supernatants of synovial explants
1,"BMP7: full-length recombinant bone morphogenetic protein 7 (R&D Systems), used at 1 nM",not significantly changed
2,H-AAYYSEGESAFPLNSYMNAT-OH [p[63−82]],not significantly changed
